# Oligonucleotides are written 5' to 3', each unit as a sugar letter and its base; * is a phosphorothioate linkage, no mark a phosphodiester; rarer units and linkages stand in square brackets, end groups in braces. Plain capitals give the bases only. k = constrained ethyl (cEt); d = 2'-deoxy (DNA)
# Legend:
# AR mRNA [1] = assay: AR mRNA in LnCaP cells by free uptake (hAR_LTS00943); type: cell-based, human; settings: 24 hrs
# Description: Cells were plated at a concentration of 4,000 cells/well in 96-well plates. ISIS oligonucleotides, specified in Table 68, were added individually at 0.02 μM, 0.10 μM, 0.50 μM, 2.50 μM, or 10.00 μM. After an incubation period of 24 hrs, mRNA levels were measured using primer probe set hAR_LTS00943.
# AR mRNA [2] = assay: Dose-dependent antisense inhibition of human AR in HuVEC cells (electroporation, qRT-PCR RTS3559, IC50); type: cell-based
# Method in brief: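 HuVEC cells dosed with antisense oligonucleotides by electroporation and treated approximately 16 hours. AR mRNA quantified by real-time qPCR with primer probe set RTS3559 and normalised to total RNA by RIBOGREEN; IC50 from dose-response.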
# AR-V7 = assay: Western blot of AR-V7 in MDV3100-resistant C4-2B cells; type: cell-based, human; settings: C4-2B MR cells (Example 16)
substance,measurement,setting,value
549458 (kG*kT*kT*dG*dA*dT*dT*dT*dA*dA*dT*dG*dG*kT*kT*kG) [compound 549458],Percent inhibition of AR mRNA,AR mRNA [1]; 0.02 μM,4%
same,Percent inhibition of AR mRNA,AR mRNA [1]; 0.1 μM,14%
same,Percent inhibition of AR mRNA,AR mRNA [1]; 0.5 μM,67%
same,Percent inhibition of AR mRNA,AR mRNA [1]; 10 μM,89%
same,percent inhibition of AR,"AR mRNA [2]; 31.25 nM, HuVEC, ~16 h, Table 6",15%
same,percent inhibition of AR,"AR mRNA [2]; 31.25 nM, HuVEC, ~16 h, Table 8",30%
same,percent inhibition of AR,"AR mRNA [2]; 31.25 nM, HuVEC, ~16 h, Table 14",0%
same,percent inhibition of AR,"AR mRNA [2]; 46.9 nM, HuVEC, ~16 h, Table 15",15%
same,percent inhibition of AR,"AR mRNA [2]; 55.6 nM, HuVEC, ~16 h, Table 4",48%
same,percent inhibition of AR,"AR mRNA [2]; 62.5 nM, HuVEC, ~16 h, Table 6",25%
same,percent inhibition of AR,"AR mRNA [2]; 62.5 nM, HuVEC, ~16 h, Table 8",36%
same,percent inhibition of AR,"AR mRNA [2]; 62.5 nM, HuVEC, ~16 h, Table 10",25%
same,percent inhibition of AR,"AR mRNA [2]; 62.5 nM, HuVEC, ~16 h, Table 11",16%
same,percent inhibition of AR,"AR mRNA [2]; 62.5 nM, HuVEC, ~16 h, Table 12",19%
same,percent inhibition of AR,"AR mRNA [2]; 62.5 nM, HuVEC, ~16 h, Table 14",19%
same,percent inhibition of AR,"AR mRNA [2]; 125.0 nM, HuVEC, ~16 h, Table 6",47%
same,percent inhibition of AR,"AR mRNA [2]; 125.0 nM, HuVEC, ~16 h, Table 8",54%
same,percent inhibition of AR,"AR mRNA [2]; 125.0 nM, HuVEC, ~16 h, Table 10",46%
same,percent inhibition of AR,"AR mRNA [2]; 125.0 nM, HuVEC, ~16 h, Table 11",22%
same,percent inhibition of AR,"AR mRNA [2]; 125.0 nM, HuVEC, ~16 h, Table 12",22%
same,percent inhibition of AR,"AR mRNA [2]; 125.0 nM, HuVEC, ~16 h, Table 14",40%
same,percent inhibition of AR,"AR mRNA [2]; 166.7 nM, HuVEC, ~16 h, Table 4",84%
same,percent inhibition of AR,"AR mRNA [2]; 187.5 nM, HuVEC, ~16 h, Table 15",50%
same,percent inhibition of AR,"AR mRNA [2]; 500.0 nM, HuVEC, ~16 h, Table 4",97%
same,percent inhibition of AR,"AR mRNA [2]; 500.0 nM, HuVEC, ~16 h, Table 6",88%
same,percent inhibition of AR,"AR mRNA [2]; 500.0 nM, HuVEC, ~16 h, Table 8",85%
same,percent inhibition of AR,"AR mRNA [2]; 500.0 nM, HuVEC, ~16 h, Table 10",64%
same,percent inhibition of AR,"AR mRNA [2]; 500.0 nM, HuVEC, ~16 h, Table 11",64%
same,percent inhibition of AR,"AR mRNA [2]; 500.0 nM, HuVEC, ~16 h, Table 12",38%
same,percent inhibition of AR,"AR mRNA [2]; 500.0 nM, HuVEC, ~16 h, Table 14",74%
same,percent inhibition of AR,"AR mRNA [2]; 750.0 nM, HuVEC, ~16 h, Table 15",85%
same,percent inhibition of AR,"AR mRNA [2]; 1000.0 nM, HuVEC, ~16 h, Table 6",93%
same,percent inhibition of AR,"AR mRNA [2]; 1000.0 nM, HuVEC, ~16 h, Table 8",90%
same,percent inhibition of AR,"AR mRNA [2]; 1000.0 nM, HuVEC, ~16 h, Table 10",78%
same,percent inhibition of AR,"AR mRNA [2]; 1000.0 nM, HuVEC, ~16 h, Table 11",74%
same,percent inhibition of AR,"AR mRNA [2]; 1000.0 nM, HuVEC, ~16 h, Table 12",71%
same,percent inhibition of AR,"AR mRNA [2]; 1000.0 nM, HuVEC, ~16 h, Table 14",90%
same,percent inhibition of AR,"AR mRNA [2]; 1500.0 nM, HuVEC, ~16 h, Table 4",98%
same,percent inhibition of AR,"AR mRNA [2]; 3000.0 nM, HuVEC, ~16 h, Table 15",96%
same,IC50,"AR mRNA [2]; HuVEC cells, electroporation",190 nM
same,inhibition of AR mRNA at 46.9 nM,"AR mRNA [2]; HuVEC cells, electroporation, 46.9 nM ASO",15%
same,inhibition of AR mRNA at 187.5 nM,"AR mRNA [2]; HuVEC cells, electroporation, 187.5 nM ASO",50%
same,inhibition of AR mRNA at 750.0 nM,"AR mRNA [2]; HuVEC cells, electroporation, 750.0 nM ASO",85%
same,inhibition of AR mRNA at 3000.0 nM,"AR mRNA [2]; HuVEC cells, electroporation, 3000.0 nM ASO",96%
same,IC50,"AR mRNA [2]; HuVEC, ~16 h, Table 4",57 nM
same,IC50,"AR mRNA [2]; HuVEC, ~16 h, Table 6",100 nM
same,IC50,"AR mRNA [2]; HuVEC, ~16 h, Table 8",100 nM
same,IC50,"AR mRNA [2]; HuVEC, ~16 h, Table 10",203 nM
same,IC50,"AR mRNA [2]; HuVEC, ~16 h, Table 11",324 nM
same,IC50,"AR mRNA [2]; HuVEC, ~16 h, Table 12",470 nM
same,IC50,"AR mRNA [2]; HuVEC, ~16 h, Table 14",196 nM
same,IC50,"AR mRNA [2]; HuVEC, ~16 h, Table 15",190 nM
same,"percent inhibition of AR, 46.9 nM","AR mRNA [2]; Table 29, 46.9 nM, HuVEC, electroporation, approximately 16 hours",21%
same,"percent inhibition of AR, 187.5 nM","AR mRNA [2]; Table 29, 187.5 nM, HuVEC, electroporation, approximately 16 hours",72%
same,"percent inhibition of AR, 750.0 nM","AR mRNA [2]; Table 29, 750.0 nM, HuVEC, electroporation, approximately 16 hours",91%
same,"percent inhibition of AR, 3000.0 nM","AR mRNA [2]; Table 29, 3000.0 nM, HuVEC, electroporation, approximately 16 hours",97%
same,IC50,"AR mRNA [2]; Table 29, HuVEC, electroporation, approximately 16 hours",110 nM
same,"percent inhibition of AR, 46.9 nM","AR mRNA [2]; Table 30, 46.9 nM, HuVEC, electroporation, approximately 16 hours",22%
same,"percent inhibition of AR, 187.5 nM","AR mRNA [2]; Table 30, 187.5 nM, HuVEC, electroporation, approximately 16 hours",62%
same,"percent inhibition of AR, 750.0 nM","AR mRNA [2]; Table 30, 750.0 nM, HuVEC, electroporation, approximately 16 hours",92%
same,"percent inhibition of AR, 3000.0 nM","AR mRNA [2]; Table 30, 3000.0 nM, HuVEC, electroporation, approximately 16 hours",97%
same,IC50,"AR mRNA [2]; Table 30, HuVEC, electroporation, approximately 16 hours",130 nM
same,"percent inhibition of AR, 46.9 nM","AR mRNA [2]; Table 31, 46.9 nM, HuVEC, electroporation, approximately 16 hours",24%
same,"percent inhibition of AR, 187.5 nM","AR mRNA [2]; Table 31, 187.5 nM, HuVEC, electroporation, approximately 16 hours",59%
same,"percent inhibition of AR, 750.0 nM","AR mRNA [2]; Table 31, 750.0 nM, HuVEC, electroporation, approximately 16 hours",92%
same,"percent inhibition of AR, 3000.0 nM","AR mRNA [2]; Table 31, 3000.0 nM, HuVEC, electroporation, approximately 16 hours",98%
same,IC50,"AR mRNA [2]; Table 31, HuVEC, electroporation, approximately 16 hours",130 nM
same,"percent inhibition of AR, 46.9 nM","AR mRNA [2]; Table 32, 46.9 nM, HuVEC, electroporation, approximately 16 hours",19%
same,"percent inhibition of AR, 187.5 nM","AR mRNA [2]; Table 32, 187.5 nM, HuVEC, electroporation, approximately 16 hours",58%
same,"percent inhibition of AR, 750.0 nM","AR mRNA [2]; Table 32, 750.0 nM, HuVEC, electroporation, approximately 16 hours",89%
same,"percent inhibition of AR, 3000.0 nM","AR mRNA [2]; Table 32, 3000.0 nM, HuVEC, electroporation, approximately 16 hours",96%
same,IC50,"AR mRNA [2]; Table 32, HuVEC, electroporation, approximately 16 hours",150 nM
same,"percent inhibition of AR, 46.9 nM","AR mRNA [2]; Table 33, 46.9 nM, HuVEC, electroporation, approximately 16 hours",21%
same,"percent inhibition of AR, 187.5 nM","AR mRNA [2]; Table 33, 187.5 nM, HuVEC, electroporation, approximately 16 hours",61%
same,"percent inhibition of AR, 750.0 nM","AR mRNA [2]; Table 33, 750.0 nM, HuVEC, electroporation, approximately 16 hours",90%
same,"percent inhibition of AR, 3000.0 nM","AR mRNA [2]; Table 33, 3000.0 nM, HuVEC, electroporation, approximately 16 hours",96%
same,IC50,"AR mRNA [2]; Table 33, HuVEC, electroporation, approximately 16 hours",130 nM
same,"percent inhibition of AR, 46.9 nM","AR mRNA [2]; Table 34, 46.9 nM, HuVEC, electroporation, approximately 16 hours",14%
same,"percent inhibition of AR, 187.5 nM","AR mRNA [2]; Table 34, 187.5 nM, HuVEC, electroporation, approximately 16 hours",53%
same,"percent inhibition of AR, 750.0 nM","AR mRNA [2]; Table 34, 750.0 nM, HuVEC, electroporation, approximately 16 hours",84%
same,"percent inhibition of AR, 3000.0 nM","AR mRNA [2]; Table 34, 3000.0 nM, HuVEC, electroporation, approximately 16 hours",95%
same,IC50,"AR mRNA [2]; Table 34, HuVEC, electroporation, approximately 16 hours",180 nM
same,"percent inhibition of AR, 46.9 nM","AR mRNA [2]; Table 35, 46.9 nM, HuVEC, electroporation, approximately 16 hours",13%
same,"percent inhibition of AR, 187.5 nM","AR mRNA [2]; Table 35, 187.5 nM, HuVEC, electroporation, approximately 16 hours",49%
same,"percent inhibition of AR, 750.0 nM","AR mRNA [2]; Table 35, 750.0 nM, HuVEC, electroporation, approximately 16 hours",84%
same,"percent inhibition of AR, 3000.0 nM","AR mRNA [2]; Table 35, 3000.0 nM, HuVEC, electroporation, approximately 16 hours",91%
same,IC50,"AR mRNA [2]; Table 35, HuVEC, electroporation, approximately 16 hours",190 nM
same,"percent inhibition of AR, 46.9 nM","AR mRNA [2]; Table 36, 46.9 nM, HuVEC, electroporation, approximately 16 hours",1%
same,"percent inhibition of AR, 187.5 nM","AR mRNA [2]; Table 36, 187.5 nM, HuVEC, electroporation, approximately 16 hours",51%
same,"percent inhibition of AR, 750.0 nM","AR mRNA [2]; Table 36, 750.0 nM, HuVEC, electroporation, approximately 16 hours",83%
same,"percent inhibition of AR, 3000.0 nM","AR mRNA [2]; Table 36, 3000.0 nM, HuVEC, electroporation, approximately 16 hours",96%
same,IC50,"AR mRNA [2]; Table 36, HuVEC, electroporation, approximately 16 hours",230 nM
"GTTGATTTAATGGTTG (all phosphorothioate, sugars by position not given here; further chemistry not fully specified) [ISIS 549458]",levels of AR-V7 (Western analysis),AR-V7,reduced levels of full-length AR and AR-V7

# Reference: patent publication USRE48461E1, “Modulation of androgen receptor expression” (Ionis Pharmaceuticals, Inc., priority 2012, dated 2021)
